Measured values taken from patent publication US20060223884A1, “Compounds and compositions for use in the prevention and treatment of obesity and related syndromes” (priority 2005, published 2006).
Read-outs that look alike come from different tables or passages of the source.

Experiments:
[1] = Body weight of DIO mice, 4-hydroxyisoleucine and Rimonabant alone and in combination (Example 7); format: in vivo, C57BU6 mice; settings: oral
Procedure: C57BU6 mice were received at 7-8 weeks of age and fed a high fat diet (60% of calories from fat) for 8 weeks. Seven days prior to treatment, animals were randomized based on their body weight and fasted glycemia values into control and treated groups (n=8). The animals were treated by oral gavage twice daily with 4-OH (50 mg/kg of body weight; group 2), once daily in the afternoon with Rimonabant (0.1 mg/kg; group 3), and a combination of the two treatments (4-OH 50 mg/kg twice daily +Rimonabant 0.1 mg/kg once daily; group 4). The control group (group 1) received vehicle alone twice daily. After 3 weeks of treatment (day 22), the doses were increased as follows: 4-OH 100 mg/kg twice daily (group 2), Rimonabant 1 mg/kg once daily (group 3), and the combination (4-OH 100 mg/kg twice daily+Rimonabant 1 mg/kg once daily; group 4). The animals were treated for 1 week with these higher doses. Body weight of the mice was recorded every day for all groups from Day 6 to Day 28.

[2] = Oral Glucose Tolerance Test (OGTT) in DIO mice, 4-hydroxyisoleucine and Exendin-4 alone or in combination (Example 5); format: in vivo, C57BI/6 mice; settings: single agent, 4-OH 50 mg/kg or Exendin-4 0.01 mg/kg, after 7, 14 and 21 days of treatment
Procedure: Glycemic response was monitored by an Oral Glucose Tolerance Test (OGTT) performed on days 0, 7, 14, and 21 of treatment.
A total of 56 animals were used in the study. The animals were distributed into 7 groups (5 treated, 1 normal diet control, and 1 high fat diet control group). Each group was composed of 8 animals. […] For the three weeks of treatment, the test agents were dissolved in sterile saline for injection (USP). 4-Hydroxyisoleucine was kept at 4° C. (administration to groups 3, 4, and 7) while a frozen aliquot of Exendin-4 was thawed each dosing day for administration to groups 5, 6, and 7. Control animals received sterile saline, twice daily (groups 1 and 2). […] Animals from groups 5 and 6 received sterile saline as the AM treatment, while the PM treatment consisted of 0.05 and 0.01 mg/kg of Exendin-4, respectively. For Group 7, the AM treatment consisted of 50 mg/kg 4-OH only, while the PM treatment consisted of 0.01 mg/kg of Exendin-4+50 mg/kg of 4-OH. All groups were treated by subcutaneous injection.
On days 0, 7, 14, and 21, animals fasted for approximately 5 hours were challenged with an Oral Glucose Tolerance Test (OGTT) at 5 hours post-AM test agent administration. Whole blood glucose levels were monitored using a hand-held glucometer prior to OGTT and for up to 2 hours post-glucose challenge.

[3] = DIO mice
Source text: (§1) The objective of this study was to evaluate the effect of chronic administration of 4-hydroxyisoleucine (4-OH, compound 14a) and Rosiglitazone, administered alone or in combination, on food consumption and body weight gain of DIO-mice. Both parameters were monitored for 1 week prior to the commencement of treatment, then for the 28 days of treatment and for an additional 7 days post-treatment.
(§2) A total of 72 animals were used in the study. The animals were distributed into 6 groups (5 treated, 1 control group, all on high fat diet). Each group was composed of 12 animals. The mice were randomized according to body weight and basal glycemia values following a 5±0.5 hour fasting period.
For the four weeks of treatment, the test articles were dissolved in reverse osmosis water. 4-Hydroxyisoleucine was aliquoted and kept at 4° C. (administration to groups 2, 3, and 6), while Rosiglitazone was freshly prepared daily and kept at 4° C. between the AM and PM administration to groups 4, 5, and 6. Control animals received reverse osmosis water twice daily (group 1). Mice from groups 2 and 3 were treated twice daily with 4-OH at 50 and 100 mg/kg, respectively. Animals from groups 4 and 5 received 1.5 and 5 mg/kg of Rosiglitazone, respectively. […] All groups were treated by oral gavage. Treatment commenced on Day 0 and ended on Day 28 (FIGS. 17A and 17C).
Food consumption was measured and averaged on a weekly basis beginning one week before the start of treatment as shown in FIGS. 17B and 17D as week −1. Similarly, food consumption was monitored for one week after treatment was stopped and is shown as week 5 in FIGS. 17B and 17D. In FIG. 17B, the food consumption over time for various treatment groups is illustrated by the bar graph.

[4] = format: in vivo
Source text: as §1, with “14a)” for “14a) and Rosiglitazone, administered alone or in combination,”, “77” for “28”, “12” for “7”
as §2, with “C57BL/6 mice were received at 7-8 weeks of age and fed a high fat diet (60% of calories from fat) for several weeks. A” for “A”, “32” for “72”, “4” for “6”, “(3” for “(5”, “8” for “12”
The test agent was dissolved in reverse osmosis water. 4-Hydroxyisoleucine was aliquoted and kept at 4° C. Control animals received reverse osmosis water twice daily (group 1). Mice from groups 2, 3 and 4 were treated twice daily with 4-hydroxyisoleucine (4-OH, compound 14a) at 100, 50, and 25 mg/kg, respectively. All groups were treated by oral gavage. Treatment commenced on Day 0 and ended on Day 77. Food consumption was measured daily and averaged on a weekly basis beginning one week before the start of treatment as shown in FIG. 15B. Similarly, food consumption was monitored during the treatment period and for 12 days after treatment was stopped as shown in FIGS. 15A and 15B.

[5] = 4-OH 50 or 100 mg/kg twice daily

## C[C@@H]([C@H](C)O)[C@H](N)C(=O)O [compound 14a, (2S,3R,4S)-4-Hydroxyisoleucine]
[1]; 4-OH 50 mg/kg twice daily, Rimonabant 0.1 mg/kg once daily, alone or in combination
  body weight gain after 21 days (low dosage treatment): slight reduction of body weight gain
[1]; 4-OH 100 mg/kg twice daily, Rimonabant 1 mg/kg once daily, alone or in combination (combination compared to each compound separately)
  body weight after dose increase (day 22 to 28): immediately reduced the body weight
[2]
  glycemic levels following OGTT challenge: consistently effective at reducing glycemic levels
[3]; 4-OH 50 mg/kg co-administered with Rosiglitazone 1.5 mg/kg
  weight gain induced by Rosiglitazone: able to modulate the weight gain induced by Rosiglitazone
[3]; 4-OH 50 mg/kg, Rosiglitazone 1.5 mg/kg, or the two co-administered
  food consumption (FIG. 17D): reduction in food consumption during the first week, but not after
[3]; 4-OH 100 mg/kg twice daily oral, 28 days
  weight gain: Moderation of weight gain
[3]; [5]
  food consumption, first week of treatment (FIG. 17B): decreased
  food consumption, remainder of the treatment phase (FIG. 17B): returned to pre-treatment levels
[4]; DIO mice, 100 mg/kg twice daily oral, Day 28 to Day 84
  effect on weight gain: sustained and highly significant
[4]; DIO mice, 25, 50 and 100 mg/kg twice daily, oral gavage, 77 days
  tolerability of treatments: well-tolerated
[4]; DIO mice, 50 and 100 mg/kg twice daily oral, first three weeks of treatment
  weight gain: moderation of weight gain
[4]; DIO mice, during the first week of treatment, paralleling the reduction in body weight gain
  food consumption: slight decrease in food consumption
[4]; DIO mice, first week following cessation of treatment with 100 mg/kg
  body weight gain and food consumption after cessation of treatment: increase
